From paper PMC5629628, “The development of activatable lytic peptides for targeting triple negative breast cancer” (Cell Death Discovery, 2017) come the findings set out here.

Data set [1] concerns mouse red blood cells. The data set is described as follows: Haemolytic activity. Format: cell-based. The conditions noted are these: mouse red blood cells 10^8/ml in 0.9% NaCl, 1 h, 310 K, absorbance 570 nm. Here is the method: Fresh mouse red blood cells were collected and centrifuged at 800 rpm for 5 min. The erythrocytes were washed and re suspended in 0.9% NaCl to 10^8/ml. A serial dilution of peptides were added and incubate at 310 K. After 1 h incubation, erythrocytes were centrifuged and the release of hemoglobin was monitored by measuring the absorbance of supernatant at 570 nm by a microplate reader (PerkinElmer).

For data set [2], the system named is HEK293T. The data set is described as follows: Cell viability, non-tumourigenic HEK293T. Format: cell-based. The conditions noted are these: 24 h treatment.
Protocol: (§2) 100 μl of 4×10^4/ml cell suspension (MDA-MB-231, MCF-7, HeLa, SK-OV-3) was placed in each well of the 96-well culture plate and allowed to grow in dulbecco's modified eagle medium or Leibovitz medium (L-15) supplemented with 10% fetal bovine serum overnight. The cells were incubated with serial dilution of compounds at 310 K in 5% fetal bovine serum containing media for 24 h supplied with 5% CO2. At the end of the compounds exposure, 20 μl of 3-(4,5-dimethyl-2-thiazolyl)-2,5-diphenyl-2-H-tetrazolium bromide reagent was added and incubated at 310 K for 4 h. The absorbance of formazan product was measured at 490 nm by a microplate reader (PerkinElmer, Waltham, MA, USA). Cells without peptide were treated as control. *P<0.05, **P<0.01, ***P<0.001 compared with vehicle-treated cells. In Z-VAD-FMK assays, *P<0.05, **P<0.01, ***P<0.001 compared with cells without treatment of Z-VAD-FMK.
The subject of data set [3] is kidney. The data set is described as follows: Chronic renal toxicity, kidney haematoxylin-eosin staining. The format is in vivo, mice. The note with it: 20 mg/kg i.v. every other day over 2 weeks. On the procedure:
(§1) In acute toxicity studies, 12 mice were divided into four groups (n=3 for each group) and administered via intravenous injection with peptide (e8-Uk14, e7-Ur11) at the dose of 20 or 40 mg/kg. In chronic renal toxicity studies, mice were administered via intravenous injection with peptide (e8-Uk14, e7-Ur11) at the dose of 20 mg/kg every other day over a periods of 2 weeks.

The subject of data set [4] is MDA-MB-231 tumour. Nature of the data set: In vivo fluorescence imaging and tissue distribution. More on the design: species or system mice. The conditions noted are these: Cy5-labelled peptides, n=2. On the procedure: Four-week-old nude mice were purchased from the Vital River (Beijing, China) and allowed to grow for further two weeks. Approximately 1×10^6 MDA-MB-231 cells were injected into the mammary fat pads of female mice in a vehicle of 4 mg/ml Matrigel (Becton Dickinson and Co., New York, NY, USA). One week later, mice bearing tumours around 50 mm^3 in volume were randomly divided into groups for subsequent experiments.
For optical imaging, mice were anesthetized with isoflurane. Cy5-labelled peptides were injected intravenously at a dose of 100 μl, 50 μM. At each time point, mice were again anesthetized and imaged using IVIS Spectrum Pre-clinical In Vivo Imaging System (640 nm/680 nm). Fluorescence in manually set regions of interest was quantified by Living Image. The contrast ratio was calculated by dividing the tumour fluorescence by the chest and abdomen fluorescence.

For data set [5], the system named is nude mice. Nature of the data set: Acute toxicity in mice. Format: in vivo. The note with it: 40 mg/kg (200 μl, 4 mg/ml) intravenous, n=3 per group. On the procedure: as §1
For data set [6], the system named is MDA-MB-231. Nature of the data set: Cell viability with or without caspase inhibitor Z-VAD-FMK. Format: cell-based, human. The conditions noted are these: MDA-MB-231, 24 h treatment, with or without Z-VAD-FMK.
Protocol: as §2
In data set [7] the test system is caspase-3/7 in MDA-MB-231 cells. The data set is described as follows: Caspase-3/7 activation analysis. The format is cell-based, human. The note with it: MDA-MB-231, 4 h treatment; Uk14 5 μM, Ur11 10 μM, ABT-737 10 μM. On the procedure: Cells (MDA-MB-231) were plated 10 000 per well on 96-well plates in medium containing 10% fetal bovine serum and incubated with serial dilution of peptides and ABT-737 for 4 h. Then caspase-3/7 activation was measured by addition of the caspase-Glo 3/7 chemiluminescence reagent in accordance with the manufacturer’s protocol (Promega, Madison, WI, USA).

`CC(=O)N[C@H](Cc1c[nH]c2ccccc12)C(=O)NCCC(=O)N[C@H](CCC(=O)O)C(=O)N[C@H](CCC(=O)O)C(=O)N[C@H](CCC(=O)O)C(=O)N[C@H](CCC(=O)O)C(=O)N[C@H](CCC(=O)O)C(=O)N[C@H](CCC(=O)O)C(=O)N[C@H](CCC(=O)O)C(=O)NCCCCCC(=O)N1CCC[C@H]1C(=O)N[C@@H](CC(C)C)C(=O)NCC(=O)N[C@@H](CC(C)C)C(=O)N[C@@H](C)C(=O)NCC(=O)N[C@H](CCCNC(=N)N)C(=O)N[C@H](CC(C)C)C(=O)NC(C)(C)C(=O)N[C@H](CCCNC(=N)N)C(=O)N[C@H](CCCNC(=N)N)C(=O)N[C@H](CC(C)C)C(=O)NC(C)(C)C(=O)N[C@H](CCCNC(=N)N)C(=O)N[C@H](CC(C)C)C(=O)NC(C)(C)C(=O)N[C@H](CCCNC(=N)N)C(N)=O` [e7-Ur11]: the haemolytic activity result in data set [1] is “diminished membrane disruption and haemolysis”. Besides, in data set [2], the “cytotoxicity against non-tumourigenic HEK293T” value is “no obvious cytotoxicity”. In addition, the “kidney histology (haematoxylin-eosin staining)” value in data set [3] was “bleeding was observed at the junction of renal”. For the same compound, the “tumour accumulation (in vivo fluorescence imaging)” value in data set [4] (100 μl 50 μM, tail vein, MDA-MB-231 tumour-bearing mice) was “significantly higher accumulation in tumours compared to unmodified peptides”. In data set [4] (organs excised 6 h after injection), the “uptake in excised tumour” value was “higher compared to UK14 and Ur11”. For the same compound, the “acute toxicity (survival)” value in data set [5] is reported as “caused death (one in three survived)”.
For the compound `CN(C)CC[C@H](CSc1ccccc1)Nc1ccc(S(=O)(=O)NC(=O)c2ccc(N3CCN(Cc4ccccc4-c4ccc(Cl)cc4)CC3)cc2)cc1[N+](=O)[O-]` [ABT-737, reference compound], in data set [6], the “effect of caspase inhibitor Z-VAD-FMK on cytotoxic effect” value was “did have an inhibitory effect”. The caspase-3/7 activation entry in data set [7] is given as “observed”.
